Assay results: paper PMC9343080, “Distribution- and Metabolism-Based Drug Discovery: A Potassium-Competitive Acid Blocker as a Proof of Concept” (Research, 2022)
Where two headings read alike, the source gives them in different places. Marks after values point to notes of the source that are not given here.

Legend:
[1] = Tissue distribution of vonoprazan and its metabolites in rats (previous studies); format: in vivo, rat; details: 1 h after oral 2.0 mg/kg, calculated from data of a previous study, ref [40]
Rat microsomal stability = format: in vitro ADME; details: rat, rat liver microsomes; read-out: Metabolic stability (t1/2) rat
Procedure: (§1) The in vitro metabolic stabilities of selected compounds were performed using human and rat liver microsomes in triplicate as described previously.

[2] = cited from earlier work; for Drug concentration, Plasma: 2 mg/kg
[3] = pH 7.4; ref [35], [38], [39]; cited from earlier work
[4] = system: 2-DG-stimulated gastric acid secretion; assay: In vivo inhibition of 2DG-stimulated acid secretion in anesthetized rats; set-up: species or system rat; details: i.g. 2 mg/kg
Procedure: (§2) 60 SPF SD rats weighing 180-220 g were randomly divided into […]: sham, model, SH-337 (2 mg/kg and 4 mg/kg), vonoprazan (2 mg/kg), males and females are equally divided. Fasting for 24 hours, model and sham groups were treated with deionized water. Drugs and vehicle were given through intragastric administration to rats before anesthesia. 1 h after administration, pylorus was ligated. 5 min later, histamine 2HCl (30 mg/10 mL/kg) was injected subcutaneously. At 3 h after histamine administration, the rats were killed by CO2 asphyxiation. The gastric contents were collected in a 10 mL centrifuge tube after removing their stomachs. Centrifuge at 3000 g for 10 min, and then, determine the total acid output during a 3 h period by 0.1 M NaOH [52, 53]. %Inhibition = (average of modelacid–drugacid)/average of modelacid × 100%.
The 2DG-stimulated acid secretion in anesthetized rats was measured as described as for histamine-stimulated acid secretion, with the exception that 5 min after pylorus ligation, 2-DG (200 mg/10 mL/kg) was injected subcutaneously.

[5] = target: T1, rabbit gastric H+, K+-ATPase (Oryctolagus cuniculus, UniProt P27112); assay: In vitro enzymatic activity assay (inorganic phosphate from ATP hydrolysis); format: biochemical
T1 construct: using rabbit gastric H^+, K^+-ATPase; from tissue; host or cells: rabbit stomach (gastric preparation; the method of preparation is not described)
Procedure: The in vitro enzymatic activity was calculated by measuring the inorganic phosphate produced by the hydrolysis of ATP using rabbit gastric H^+, K^+-ATPase. 0.25 μg enzyme was preincubated at 37°C for 30 min in Tris-HCl buffer (2.0 mL, 50 mM, pH 6.5) containing 5 mM MgCl2, 10 μM valinomycin, 0 or 20 mM KCl, and different concentrations of SH-337 and vonoprazan. The reaction was initiated by adding 5 μL of 5 mM ATP 2Na, and the preparation was incubated for 30 min at 37°C and halted by the addition of 100 μL of malachite green reagent (0.12% malachite green, 7.5% ammonium molybdate, and 11% tween 20 were mixed in a volume ratio of 100 : 25 : 2). H^+, K^+-ATPase activity was calculated after subtracting the enzyme activity in the absence of KCl.

[6] = ref [43], cited from earlier work
[7] = system: histamine-stimulated gastric acid secretion; assay: In vivo inhibition of histamine-stimulated acid secretion in anesthetized rats; set-up: species or system rat
Procedure: as §2

Na+, K+-ATPase = assay: In vitro Na+, K+-ATPase activity; format: biochemical
[8] = Human microsomal stability; format: in vitro ADME; details: human, human liver microsomes; read-out: Metabolic stability (t1/2) human
Procedure: as §1

[9] = AUC0–24, rats, i.g. 2 mg/kg vonoprazan, ref [43]
[10] = rats, 1 h after oral administration of 2.0 mg/kg, ref [40]
[11] = rats, i.g. 2 mg/kg vonoprazan, ref [43]

T1 sequence (P27112 whole entry): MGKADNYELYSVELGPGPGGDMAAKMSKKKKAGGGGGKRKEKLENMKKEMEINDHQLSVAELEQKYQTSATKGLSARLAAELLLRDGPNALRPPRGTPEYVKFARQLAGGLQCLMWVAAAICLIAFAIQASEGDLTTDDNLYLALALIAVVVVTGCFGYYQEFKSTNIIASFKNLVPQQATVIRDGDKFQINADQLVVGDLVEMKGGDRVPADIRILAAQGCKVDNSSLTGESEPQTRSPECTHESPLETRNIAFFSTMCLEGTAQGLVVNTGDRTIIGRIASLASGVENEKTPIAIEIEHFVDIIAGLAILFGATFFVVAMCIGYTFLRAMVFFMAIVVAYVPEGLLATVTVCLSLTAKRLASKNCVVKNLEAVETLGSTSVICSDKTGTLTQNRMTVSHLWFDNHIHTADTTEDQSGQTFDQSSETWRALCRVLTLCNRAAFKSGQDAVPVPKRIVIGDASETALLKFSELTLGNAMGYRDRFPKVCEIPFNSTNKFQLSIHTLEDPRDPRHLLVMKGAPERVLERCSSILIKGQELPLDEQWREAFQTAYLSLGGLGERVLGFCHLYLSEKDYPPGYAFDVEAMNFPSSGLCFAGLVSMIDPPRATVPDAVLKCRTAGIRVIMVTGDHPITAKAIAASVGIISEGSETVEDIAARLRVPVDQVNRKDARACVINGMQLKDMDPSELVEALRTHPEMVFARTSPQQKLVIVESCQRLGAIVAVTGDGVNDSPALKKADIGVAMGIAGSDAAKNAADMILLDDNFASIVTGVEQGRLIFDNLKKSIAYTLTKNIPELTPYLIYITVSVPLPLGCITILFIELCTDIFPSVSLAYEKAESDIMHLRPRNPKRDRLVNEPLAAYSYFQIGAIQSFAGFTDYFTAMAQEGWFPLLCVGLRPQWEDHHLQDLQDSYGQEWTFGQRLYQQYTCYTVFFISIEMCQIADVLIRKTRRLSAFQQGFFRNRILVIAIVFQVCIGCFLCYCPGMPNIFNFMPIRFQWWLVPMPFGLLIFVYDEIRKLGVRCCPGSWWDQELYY
T1 sequence (P18597 whole entry partner): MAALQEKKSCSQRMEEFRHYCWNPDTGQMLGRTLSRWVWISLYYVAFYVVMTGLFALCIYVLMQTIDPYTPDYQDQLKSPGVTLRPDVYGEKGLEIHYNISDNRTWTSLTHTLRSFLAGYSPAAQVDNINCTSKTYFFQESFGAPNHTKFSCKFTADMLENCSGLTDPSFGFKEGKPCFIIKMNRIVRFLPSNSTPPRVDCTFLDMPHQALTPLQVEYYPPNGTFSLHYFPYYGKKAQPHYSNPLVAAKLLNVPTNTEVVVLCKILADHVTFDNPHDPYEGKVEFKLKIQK

CNCc1cc(-c2ccccc2F)n(S(=O)(=O)c2cccnc2)c1.O=C(O)/C=C/C(=O)O [Vonoprazan, 1-[5-(2-fluorophenyl)-1-(pyridin-3-ylsulfonyl)-1H-pyrrol-3-yl]-N-methylmethanamine fumarate]
C Stomach/CPlasma ([1]; 2 mg/kg): 87.0^e | Kp at 1 h ([1]; rat, stomach/plasma, read-out: C Stomach/CPlasma): 87 | half-life (Rat microsomal stability): 0.908 h | C Stomach/CLiver (stomach-liver distribution ratio) [2, 9]: 3.2 | C Stomach/CPlasma (stomach-plasma distribution ratio) [2, 9]: 165.0 | C Stomach/CPlasma (stomach-plasma distribution ratio) ([2]; AUC0–24, rats, i.g. 2 mg/kg vonoprazan, ref [43], listed as vonoprazan): 165 | Drug concentration, Plasma [2, 10]: 11.0^c ng/mL | Drug concentration, Stomach [2, 10]: 957.0^c ng/mL | Drug concentration, Plasma ([2]; rats, 1 h after oral administration of 2.0 mg/kg, ref [40], listed as vonoprazan): 11 ng/mL | AUC0–24, Liver [2, 11]: 4039.0 ng equiv. h/mL or g | AUC0–24, Plasma [2, 11]: 79.0 ng equiv. h/mL or g | AUC0–24, Stomach [2, 11]: 13085.0 ng equiv. h/mL or g | log D7.4 [3]: 0.4^a | Inhibition (%), 2-DG-stimulated model [4]: 80% | Total acid output, 2-DG-stimulated model [4]: 0.62 ± 0.55^∗∗ 10^−4 mol | IC50 [5]: 0.0655 µM | ALT and total cholesterol ([6]; 100 mg/kg dose of vonoprazan, males): high ALT and total cholesterol were observed in males | no observed adverse effect level (NOAEL) [6]: 30 mg/kg | In vivo efficacy (% inhibition) ([7]; histamine-induced acid secretion in rats, 2 mg/kg, i.g. (Table 2)): 78% | Total acid output, histamine-stimulated model ([7]; rats, i.g. 2 mg/kg): 0.29 ± 0.43^∗∗ 10^−4 mol | IC50 (Na+, K+-ATPase): 47.1 µM | Fold selectivity (Na+, K+-ATPase; Na+, K+-ATPase over H+, K+-ATPase): 719.4 fold | half-life [8]: 5.65 h
